≈ marks a conversion by molar mass, not a printed value. Where two headings read alike, the source gives them in different places.
Legend:
[1] = Human microsome stability assay; assay type: in vitro ADME; settings: human liver microsomes 0.5 mg/mL, 37° C., pH 7.4, NADPH regenerating system
Protocol: The human microsomal stability assay is used for early assessment of metabolic stability of a test compound in human liver microsomes.
Human liver microsomes (Cat.NO.: 452117, Corning, USA) were preincubated with test compound for 10 minutes at 37° C. in 100 mM potassium phosphate buffer, pH 7.4. The reactions were initiated by adding NADPH regenerating system. The final incubation mixtures contained 1 µM test compound, 0.5 mg/mL liver microsomal protein, 1 mM MgCl2, 1 mM NADP, 1 unit/mL isocitric dehydrogenase and 6 mM isocitric acid in 100 mM potassium phosphate buffer, pH 7.4. After incubation times of 0, 3, 6, 9, 15 and 30 minutes at 37° C., 300 μL of cold acetonitrile (including internal standard) was added to 100 μL incubation mixture to terminate the reaction. Following precipitation and centrifugation, the amount of compound remaining in the samples were determined by LC-MS/MS. Controls of no NADPH regenerating system at zero and 30 minutes were also prepared and analyzed. […] (Human microsome clearance: <7 mL/min/kg: low; 7-16.2 mL/min/kg: medium; >16.2 mL/min/kg: high)

[2] = target: Escherichia coli UDP-2,3-diacylglucosamine hydrolase (LpxH) (Escherichia coli (strain K12), UniProt P43341); experiment: Enzymatic IC50 assay of Escherichia coli LpxH (UMP/CMP-Glo luminescence); assay type: biochemical; settings: Enzymatic IC50 against Escherichia coli LpxH; read-out: IC50 (converted)
Protocol: The inhibitory potency of compounds of Escherichia coli UDP-2,3-diacylglucosamine hydrolase (LpxH) was determined in an enzymatic assay. UDP-2,3-diacylglucosamine (UDP-DAG) was purified from the Caulobacter crescentus LpxI D225A mutant protein that contained a tightly bound UDP-DAG molecule. The enzyme was diluted using assay buffer containing 50 mM NaCl, 20 mM Tris-HCl pH7.5, 2.5 mM MnCl2, 0.01% Triton X-100.1 mg/mL BSA, and the final concentration is 2 nM. The compounds were diluted by Agilent liquid handler Bravo, the compound's serial dilution dose ranges from 100 μM to 1.7 nM. Then the enzyme and compounds mixture were incubated at room temperature for 10 mins. The enzymatic assay was started by adding UDP-DAG (FAC is 5 μM) and incubated for 20 mins at room temperature. The plate was then heated to 95° C. for 15 mins on a water batch to stop the reaction. The hydrolysis of UDP-DAG by LpxH yielded 2,3-diacylglucosamine 1-phosphate (lipid X) and UMP, which was converted to ATP and quantified by the luciferase reaction using the UMP/CMP-Glo™ Glycosyltransferase Assay kit from Promega. The compound's inhibitory effect of LpxH is determined by measuring the light change using a luminometer (Envision).

[3] = tested on: Klebsiella pneumonia ATCC 43816; experiment: Minimal Inhibitory Concentration (MIC) broth dilution assay, K. pneumonia ATCC 43816; assay type: cell-based; settings: Klebsiella pneumoniae, ATCC43816, 20 hours at 35° C., CAMHB, read-out: MIC K. p ATCC 43816
Protocol: (§1) The antibacterial activity of molecules was evaluated against the commonly used quality control strain Escherichia coli BW 25113, Escherichia coli ATCC 25922 and the rifampin-resistant mutant strain Klebsiella pneumonia ATCC 43816. Escherichia co/i BW 25113 was obtained from the Coli Genetic Stock Center (CGSC) (strain 7636). Both Escherichia coli ATCC 25922 and Klebsiella pneumonia ATCC 43816 were originally derived from human clinical samples and are available from ATCC (American Type Culture Collection). The in vitro potency of compounds to inhibit Escherichia coli (BW 25113, ATCC 25922) and Klebsiella pneumonia (ATCC 43816) growth was assessed by the MIC (Minimal Inhibitory Concentration) broth dilution method. Specifically compound dilutions were prepared from 10 mM DMSO stock solutions as follows: i) serial 2-fold dilution in 20 μL DMSO were prepared in a master plate (Greiner, Cat No: 651201), ii) 180 μL sterile distilled water was added to each aliquot and iii) 10 μL diluted compounds were transferred into a new assay plate (Costar, 3599).
(§2) Vials of each test microorganisms were maintained frozen in the vapor phase of a liquid nitrogen freezer. Single-use frozen vials of the three strains Escherichia coli BW 25113, Escherichia coli ATCC 25922 (KWTKSTTK, 0335K) and Klebsiella pneumonia ATCC 43816, with predetermined CFU/mL, were taken out from the freezer, thawed at room temperature, and diluted in Cation-Adjusted Mueller Hinton Broth (CAMVIHB) to achieve a final inoculum of 5×10^5 CFU/mL. 90 μL bacteria containing broth was dispensed to the assay plate containing the pre-dispensed compound dilutions and mixed by pipetting 5 times.
(§3) Then the assay plates were incubated for 20 hours at 35° C. in ambient air. Following incubation, the MIC […], the lowest concentration of drug that inhibits visible growth of the microorganism was read with the help of a magnification mirror and recorded.

[4] = tested on: Escherichia coli BW 25113; experiment: Minimal Inhibitory Concentration (MIC) broth dilution assay, E. coli BW 25113; assay type: cell-based; settings: Escherichia coli, BW25113, 20 hours at 35° C., CAMHB, read-out: MIC E. coli K-12 BW 25113
Protocol: as §1, §2, §3

[5] = tested on: Escherichia coli ATCC 25922; experiment: Minimal Inhibitory Concentration (MIC) broth dilution assay, E. coli ATCC 25922; assay type: cell-based; settings: Escherichia coli
Protocol: as §1, §2, §3

[6] = ATCC25922, read-out: MIC E. coli ATCC 25922, broth dilution, 20 hours at 35° C., CAMHB, read-out: MIC E. coli K-12 ATCC 25922
[7] = ATCC25922, 20 h, read-out: MIC E. coli ATCC 25922

Chain of Escherichia coli UDP-2,3-diacylglucosamine hydrolase (LpxH) (P43341 whole entry): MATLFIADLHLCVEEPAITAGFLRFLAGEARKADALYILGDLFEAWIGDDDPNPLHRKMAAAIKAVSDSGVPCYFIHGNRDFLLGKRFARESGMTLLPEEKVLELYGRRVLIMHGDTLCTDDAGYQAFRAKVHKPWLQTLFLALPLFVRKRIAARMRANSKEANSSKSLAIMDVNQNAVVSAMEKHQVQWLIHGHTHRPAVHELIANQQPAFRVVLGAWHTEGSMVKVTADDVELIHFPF

| SMILES | Clearance of Human microsome [1] [mL/min/kg] | IC50 [2] [nM] | MIC [3] [µg/mL] | MIC [4] [µg/mL] | MIC [5, 6] [µg/mL] | MIC [5, 7] [µg/mL] |
| --- | --- | --- | --- | --- | --- | --- |
| C[N+]1(CCN)CCN(C(=O)[C@H]2CC[C@H](C(F)(F)c3cc(Cl)nc(N4CCN(S(=O)(=O)c5ccc(N6C[C@H](N)CC6=O)cc5)CC4)c3)CC2)CC1 [Example 071, Trans-(4R)-4-amino-1-[4-[4-[4-[[4-[4-(2-aminoethyl)-4-methyl-piperazin-4-ium-1-carbonyl]cyclohexyl]-difluoro-methyl]-6-chloro-2-pyridyl]piperazin-1-yl]sulfonylphenyl]pyrrolidin-2-one] | 10.73 | 14.9 | – | – | – | – |
| NC(=O)CNC(=O)[C@H]1CC[C@@H](C(F)(F)c2cc(Cl)nc(N3CCN(S(=O)(=O)c4ccc(N5C[C@H](N)CC5=O)cc4)CC3)c2)CC1 [Example 063, Cis-N-(2-amino-2-oxo-ethyl)-4-[[2-chloro-6-[4-[4-[(4R)-4-amino-2-oxo-pyrrolidin-1-yl]phenyl]sulfonylpiperazin-1-y1]-4-pyridyl]-difluoro-methyl]cyclohexanecarboxamide] | – | 5.99 | – | – | – | – |
| N[C@@H]1CC(=O)N(c2ccc(S(=O)(=O)N3CCN(c4cc(C(F)(F)c5cnc(C(=O)NCCN6CCOCC6)cn5)cc(Cl)n4)CC3)cc2)C1 [Example 025, 5-[[2-chloro-6-[4-[4-[(4R)-4-amino-2-oxo-pyrrolidin-1-yl]phenyl]sulfonylpiperazin-1-yl]-4-pyridyl]-difluoro-methyl]-N-(2-morpholinoethyl)pyrazine-2-carboxamide] | – | < 2.78 | – | – | – | – |
| CNC(=O)c1ccc(C(F)(F)c2cc(Cl)nc(N3CCN(S(=O)(=O)c4ccc(N5CC(NCCCN)CC5=O)cc4)CC3)c2)cc1 (centres unmarked) [Example 078, 4-[[2-[4-[4-[4-(3-Aminopropylamino)-2-oxo-pyrrolidin-1-yl]phenyl]sulfonylpiperazin-1-yl]-6-chloro-4-pyridyl]-difluoro-methyl]-N-methyl-benzamide] | – | 5.92 | 2.1 (≈ 3.11 µM) | 1.4 (≈ 2.07 µM) | 2.8 (≈ 4.14 µM) | – |
| NCC(N)CNC(=O)[C@H]1CC[C@H](C(F)(F)c2cc(Cl)nc(N3CCN(S(=O)(=O)c4ccc(N5C[C@H](N)CC5=O)cc4)CC3)c2)CC1 (stereo partly drawn) [Example 077, Trans-4-[[2-chloro-6-[4-[4-[(4R)-4-amino-2-oxo-pyrrolidin-1-yl]phenyl]sulfonylpiperazin-1-yl]-4-pyridyl]-difluoro-methyl]-N-(2,3-diaminopropyl)cyclohexanecarboxamide] | – | 2.93 | 2.2 (≈ 3.22 µM) | 2.2 (≈ 3.22 µM) | 2.2 (≈ 3.22 µM) | – |
| COC(=O)[C@H]1CC[C@H](C(F)(F)c2cc(Cl)nc(N3CCN(S(=O)(=O)c4ccc(N5CC(N)CC5=O)cc4)CC3)c2)CC1 (stereo partly drawn) [Example 001, Trans-methyl 4-[[2-[4-[4-(4-amino-2-oxo-pyrrolidin-1-yl)phenyl]sulfonylpiperazin-1-yl]-6-chloro-4-pyridyl]-difluoro-methyl]cyclohexanecarboxylate] | – | 3.19 | 0.98 (≈ 1.57 µM) | 0.49 (≈ 0.783 µM) | – | 0.98 (≈ 1.57 µM) |
| Cc1cc(C(F)(F)[C@H]2CC[C@H](C(=O)NCCCN)CC2)nc(N2CCN(S(=O)(=O)c3ccc(N4C[C@H](N)CC4=O)cc3)CC2)n1 [Example 054, Trans-N-(3-aminopropyl)-4-[difluoro-[6-methyl-2-[4-[4-[(4R)-4-amino-2-oxo-pyrrolidin-1-yl]phenyl]sulfonylpiperazin-1-yl]pyrimidin-4-yl]methyl]cyclohexanecarboxamide] | – | 37 | – | – | – | – |
| NCCNCCNC(=O)c1ccc(C(F)(F)c2cc(Cl)nc(N3CCN(S(=O)(=O)c4ccc(N5C[C@H](N)CC5=O)cc4)CC3)c2)nc1 [Example 028, N-[2-(2-aminoethylamino)ethyl]-6-[[2-chloro-6-[4-[4-[(4R)-4-amino-2-oxo-pyrrolidin-1-yl]phenyl]sulfonylpiperazin-1-yl]-4-pyridyl]-difluoro-methyl]pyridine-3-carboxamide] | – | 20.2 | 1.6 (≈ 2.31 µM) | 1.6 (≈ 2.31 µM) | 1.6 (≈ 2.31 µM) | – |
| NCC(=O)N[C@H]1CC[C@@H](NC(=O)[C@H]2CC[C@H](C(F)(F)c3cc(Cl)nc(N4CCN(S(=O)(=O)c5ccc(N6C[C@H](N)CC6=O)cc5)CC4)c3)CC2)C1 [Example 079, Trans-N-[(1R,3S)-3-[(2-aminoacetyl)amino]cyclopentyl]-4-[[2-[4-[4-[(4R)-4-amino-2-oxo-pyrrolidin-1-yl]phenyl]sulfonylpiperazin-1-yl]-6-chloro-4-pyridyl]-difluoro-methyl]cyclohexanecarboxamide] | 11.16 | – | 0.85 (≈ 1.13 µM) | 3.4 (≈ 4.53 µM) | – | 3.4 (≈ 4.53 µM) |
| N[C@@H]1CC(=O)N(c2ccc(S(=O)(=O)N3CCN(c4cc(C(F)(F)[C@H]5CC[C@@H](C(=O)NCCCO)CC5)cc(Cl)n4)CC3)cc2)C1 [Example 032] | – | < 2.99 | 2.2 (≈ 3.29 µM) | 3.3 (≈ 4.93 µM) | – | 2.2 (≈ 3.29 µM) |
| NCCNC(=O)c1ccc(C(F)(F)c2cc(Cl)nc(N3CCN(S(=O)(=O)c4ccc(N5CC(N)CC5=O)cc4)CC3)c2)cc1 (centres unmarked) [Example 017, N-(2-aminoethyl)-4-[[2-[4-[4-(4-amino-2-oxo-pyrrolidin-1-yl)phenyl]sulfonylpiperazin-1-yl]-6-chloro-4-pyridyl]-difluoro-methyl]benzamide] | 9.36 | – | 0.45 (≈ 0.694 µM) | 0.35 (≈ 0.54 µM) | – | 0.3 (≈ 0.463 µM) |
| NCC(=O)NNC(=O)[C@H]1CC[C@H](C(F)(F)c2cc(Cl)nc(N3CCN(S(=O)(=O)c4ccc(N5C[C@H](N)CC5=O)cc4)CC3)c2)CC1 [Example 050, Trans-N′-(2-aminoacetyl)-4-[[2-chloro-6-[4-[4-[(4R)-4-amino-2-oxo-pyrrolidin-1-yl]phenyl]sulfonylpiperazin-1-yl]-4-pyridyl]-difluoro-methyl]cyclohexanecarbohydrazide] | – | 2.93 | 1.1 (≈ 1.61 µM) | 2.1 (≈ 3.07 µM) | 1.1 (≈ 1.61 µM) | – |
| C[N+](CCN)(CCN)CCCNC(=O)[C@H]1CC[C@H](C(F)(F)c2cc(Cl)nc(N3CCN(S(=O)(=O)c4ccc(N5C[C@H](N)CC5=O)cc4)CC3)c2)CC1 [Example 065, Trans-bis(2-aminoethyl)-[3-[[4-[[2-[4-[4-[(4R)-4-amino-2-oxo-pyrrolidin-1-yl]phenyl]sulfonylpiperazin-1-yl]-6-chloro-4-pyridyl]-difluoro-methyl]cyclohexanecarbonyl]amino]propyl]-methyl-ammonium] | 8.21 | – | 0.66 | 0.66 | – | 0.66 |

Source: patent publication US20240417387A1, “SULFONYLPIPERAZINYL COMPOUNDS FOR TREATMENT OF BACTERIAL INFECTIONS” (Hoffmann-La Roche Inc., priority 2021, published 2024)
